Measured values reported in article PMC6264310, “Synthesis and Pharmacological Activity of Diterpenylnaphthoquinone Derivatives” (Molecules, 2011).

How the values were obtained:
Hep G2 cells = assay: Basal cytotoxicity, neutral red uptake assay, Hep G2; type: cell-based; settings: Homo sapiens, HepG2, Hep G2, confluent cultures, 24 h, read-out: IC50 ± SEM, Hep G2
Method: (§1) 3.6. Cytotoxicity Assay
(§2) The human cell lines MRC-5 normal lung fibroblasts (ATCC CCL-171), AGS gastric adenocarcinoma cells (ATCC CRL-1739), and Hep G2 hepatocellular carcinoma cells (ATCC HB-8065) were obtained from the American Type Culture Collection (ATCC, Manassas, VA, USA). The cells were grown as monolayers in the following media: MRC-5 and Hep G2 in minimum essential Eagle’s medium (MEM), with Earle’s salts, 2.0 mM L-glutamine (Sigma Chemical Co.) and 2.2 g/L sodium bicarbonate (Sigma Chemical Co.), supplemented with 10% heat-inactivated fetal bovine serum (FBS), 100 IU/mL penicillin, and 100 µg/mL streptomycin in a humidified incubator with 5% CO2 in air at 37 °C. Cell passage was maintained between 10 and 16 for MRC-5 and between 79 and 82 for Hep G2 cells. The medium was changed every 2 days. Culture media, antibiotics, and FBS were obtained from Invitrogen Corp. Human gastric adenocarcinoma cells AGS (ATCC CRL-1739) were grown as monolayers in Ham F-12 medium containing 1.0 mM L-glutamine and 1.5 g/L sodium bicarbonate, supplemented with 10% heat-inactivated FBS, 100 IU/mL penicillin, and 100 µg/mL streptomycin in a humidified incubator with 5% CO2 in air at 37 °C. Cell passage was maintained between 42 and 48. The medium was changed every 2 days.
(§3) Confluent cultures of the different cell lines were treated with medium containing the compounds at concentrations ranging from 1 up to 1,000 µM. The antisecretory drug lansoprazole was used as reference compound. The substances were first dissolved in DMSO and then in the corresponding culture medium supplemented with 2% FBS. The final concentration of DMSO in the test medium and controls was 1%. The cells were exposed for 24 h to test medium with or without the compound (control). Each concentration was tested in quadruplicate together with the control and repeated three times in separate experiments. At the end of the incubation the neutral red uptake assay was performed.

AGS cells = assay: Basal cytotoxicity, neutral red uptake assay, AGS; type: cell-based; settings: Homo sapiens, confluent cultures, 24 h, read-out: IC50 ± SEM, AGS
Method: as §1, §2, §3

[1] = test system: HCl-EtOH-induced gastric lesions; assay: HCl-EtOH-induced gastric lesion model in mice; type: in vivo
Method: 3.5. HCl-EtOH-Induced Ulcer Model in Mice
The gastroprotective activity of the compounds was assessed in the EtOH-HCl-induced gastric lesion model. Male Swiss albino mice weighing 30 ± 3 g were used. The animals were fed on certified Champion diet with free access to water under standard conditions of 12 h dark-light period, 50% relative humidity, and 22 °C room temperature. The mice were randomly distributed into groups of 7–14 animals each and fasted for 24 h with free access to water before the oral administration of test samples by gavage. The purity of the tested compounds was higher than 95% by NMR analysis. To keep the animal numbers to a minimum, dose-response studies were performed with lapachol at 5, 10 and 50 mg/kg to set the conditions for single-dose comparison of gastroprotective effect. The tested compounds, lansoprazole (20 mg/kg) or the vehicle (12% Tween 80, 10 mL/kg) were administered orally by gavage. After 50 min, all groups were orally treated with 0.2 mL of a solution containing 60% EtOH-0.3 M HCl for gastric lesion induction. Animals were sacrificed by cervical dislocation 1 h after the administration of EtOH-HCl, and the stomachs excised and inflated by injection of 5% formalin (1 mL). The ulcerated stomachs were fixed in 5% formalin for 30 min and opened along the greater curvature. The length (mm) of each lesion was measured, and the lesion index expressed as the sum of the length of all lesions. Based on previous studies on the parent diterpenes, comparison of the new compounds 1–12 was carried out at a single oral dose of 5 mg/kg. The protocols were approved by the Universidad de Talca Institutional Animal Care and Use Committee, which follows the recommendations of the Canadian Council on Animal Care. Tween 80 and lansoprazole (>98% purity by HPLC) were purchased from Sigma-Aldrich.
Results were expressed as the mean ± SEM. In all experiments, statistical differences between several treatments and their respective control were determined by one-way ANOVA with Student-Newman-Keuls post-hoc test. The level of significance was set at P < 0.05.

MRC-5 fibroblasts = assay: Basal cytotoxicity, neutral red uptake assay, MRC-5; type: cell-based; settings: Homo sapiens, MRC5, MRC-5, confluent cultures, 24 h, read-out: IC50 ± SEM, Fibroblasts
Method: as §1, §2, §3

[2] = Basal cytotoxicity, cell lines not separated in the text; type: cell-based; settings: human; stated in text without cell line
Method: as §1
The human cell lines MRC-5 normal lung fibroblasts (ATCC CCL-171), AGS gastric adenocarcinoma cells (ATCC CRL-1739), and Hep G2 hepatocellular carcinoma cells (ATCC HB-8065) were obtained from the American Type Culture Collection (ATCC, Manassas, VA, USA). The cells were grown as monolayers in the following media: MRC-5 and Hep G2 in minimum essential Eagle’s medium (MEM), with Earle’s salts, 2.0 mM L-glutamine (Sigma Chemical Co.) and 2.2 g/L sodium bicarbonate (Sigma Chemical Co.), supplemented with 10% heat-inactivated fetal bovine serum (FBS), 100 IU/mL penicillin, and 100 µg/mL streptomycin in a humidified incubator with 5% CO2 in air at 37 °C. Cell passage was maintained between 10 and 16 for MRC-5 and between 79 and 82 for Hep G2 cells. The medium was changed every 2 days. Culture media, antibiotics, and FBS were obtained from Invitrogen Corp. Human gastric adenocarcinoma cells AGS (ATCC CRL-1739) were grown as monolayers in Ham F-12 medium containing 1.0 mM L-glutamine and 1.5 g/L sodium bicarbonate, supplemented with 10% heat-inactivated FBS, 100 IU/mL penicillin, and 100 µg/mL streptomycin in a humidified incubator with 5% CO2 in air at 37 °C. Cell passage was maintained between 42 and 48. The medium was changed every 2 days. […]

[3] = Mus musculus, 1 h, mice, single oral dose of 5 mg/kg, read-out: Protection (%)
[4] = mice, single oral dose of 5 mg/kg
[5] = Mus musculus, 1 h, mice, single oral dose of 5 mg/kg, read-out: Protected stomachs (number of stomachs completely protected from any visible bleeding) (converted)

| SMILES | IC50 (Hep G2 cells) | IC50 (AGS cells) | inhibition in vivo at 5 mg/kg [1, 3] | Lesion index (mm) Mean ± SEM [1, 4] | IC50 (MRC-5 fibroblasts) | responders at 5 mg/kg [1, 5] | IC50 at 24 h [2] | responders at 20 mg/kg ([1]; Mus musculus, 1 h, mice, oral, 20 mg/kg, read-out: Protected stomachs (number of stomachs completely protected from any visible bleeding) (converted)) | inhibition in vivo at 20 mg/kg ([1]; Mus musculus, 1 h, mice, oral, 20 mg/kg, read-out: Protection (%)) | Lesion index (mm) Mean ± SEM ([1]; mice, oral, 20 mg/kg) | Gastroprotective effect compared with the vehicle control (Tween 80) ([1]; mice, 5, 10 and 50 mg/kg, data not shown) |
| --- | --- | --- | --- | --- | --- | --- | --- | --- | --- | --- | --- |
| C=C1CCC2[C@](C)(CCC[C@]2(C)C(=O)O)[C@H]1CC[C@@H](C)CC(=O)OC1=C(CC=C(C)C)C(=O)c2ccccc2C1=O (stereo partly shown) [Compound 1, Lapachoyl junicedrate] | 57.4 ± 4.4 µM | 170 ± 9 µM | 44% | 15.3 ± 5.0 mm | 210 ± 13 µM | – | – | – | – | – | – |
| C=C1CCC2[C@](C)(CCC[C@]2(C)C(=O)OC)[C@H]1CC[C@@H](C)CC(=O)OC1=C(CC=C(C)C)C(=O)c2ccccc2C1=O (stereo partly shown) [Compound 2, Lapachoyl junicedrate methyl ester] | 208 ± 11 µM | 361 ± 19 µM | 65% | 8.7 ± 3.9 mm | 741 ± 40 µM | 44.4% | – | – | – | – | – |
| C=C1CCC2[C@](C)(CCC[C@]2(C)C(=O)O)[C@H]1CC[C@@H](C)CC(=O)OC1=C(CCC(C)C)C(=O)c2ccccc2C1=O (stereo partly shown) [Compound 3, Dihydroprenyl lapachoyl junicedrate] | > 1000 µM | 89 ± 5 µM | 59% | 17.9 ± 4.6 mm | 156 ± 9 µM | 0% | – | – | – | – | – |
| C=C1CCC2[C@](C)(CCC[C@]2(C)C(=O)OC)[C@H]1CC[C@@H](C)CC(=O)OC1=C(CCC(C)C)C(=O)c2ccccc2C1=O (stereo partly shown) [Compound 4, Dihydroprenyl lapachoyl junicedrate methyl ester] | > 1000 µM | 382 ± 26 µM | 55% | 19.3 ± 5.0 mm | > 1000 µM | 0% | – | – | – | – | – |
| C=C1CCC2[C@](C)(CCC[C@]2(C)C(=O)O)[C@H]1CC[C@@H](C)CC(=O)OC1=C(CCC(C)C)C(=O)C2=C(CCCC2)C1=O (stereo partly shown) [Compound 5, Dihydroprenyl-5,6,7,8-tetrahydrolapachoyl junicedrate] | 27 ± 1 µM | 40 ± 6 µM | 18% | 20.4 ± 3.6 mm | 69 ± 3 µM | 0% | – | – | – | – | – |
| C=C1CCC2[C@](C)(CCC[C@]2(C)C(=O)OC)[C@H]1CC[C@@H](C)CC(=O)OC1=C(CCC(C)C)C(=O)C2=C(CCCC2)C1=O (stereo partly shown) [Compound 6, Dihydroprenyl-5,6,7,8-tetrahydrolapachoyl junicedrate methyl ester] | > 1000 µM | > 1000 µM | 74% | 6.5 ± 2.7 mm | > 1000 µM | 37.5% | > 1000 µM | – | – | – | – |
| CC(C)=CCC1=C(OC(=O)C[C@H](C)CCC2=C(C)CCC3[C@@](C)(C(=O)O)CCC[C@]23C)C(=O)c2ccccc2C1=O (stereo partly shown) [Compound 7, Lapachoyl Δ8(9) junicedrate] | 96 ± 9 µM | 179 ± 9 µM | 54% | 11.5 ± 4.4 mm | 190 ± 8 µM | 12.5% | – | – | – | – | – |
| COC(=O)[C@@]1(C)CCC[C@]2(C)C(CC[C@@H](C)CC(=O)OC3=C(CC=C(C)C)C(=O)c4ccccc4C3=O)=C(C)CCC12 (stereo partly shown) [Compound 8, Lapachoyl Δ8(9) junicedrate methyl ester] | 379 ± 21 µM | 721 ± 35 µM | 84% | 3.9 ± 1.9 mm | > 1000 µM | 55.6% | – | – | – | – | – |
| CC1=C(CC[C@@H](C)CC(=O)OC2=C(CCC(C)C)C(=O)c3ccccc3C2=O)[C@@]2(C)CCC[C@](C)(C(=O)O)C2CC1 (stereo partly shown) [Compound 9, Dihydroprenyl lapachoyl Δ8(9) junicedrate] | > 1000 µM | 294 ± 15 µM | 64% | 15.7 ± 4.5 mm | 341 ± 17 µM | 0% | – | – | – | – | – |
| COC(=O)[C@@]1(C)CCC[C@]2(C)C(CC[C@@H](C)CC(=O)OC3=C(CCC(C)C)C(=O)c4ccccc4C3=O)=C(C)CCC12 (stereo partly shown) [Compound 10, Dihydroprenyl lapachoyl Δ8(9) junicedrate methyl ester] | > 1000 µM | 162 ± 10 µM | 76% | 10.2 ± 3.5 mm | > 1000 µM | 33.3% | – | – | – | – | – |
| CC(C)=CCC1=C(OC(=O)C[C@H](C)CCC2[C@@H](C)CCC3[C@]2(C)CCC[C@]3(C)C(=O)O)C(=O)c2ccccc2C1=O (stereo partly drawn) [Compound 11, Lapachoyl 17β-dihydrojunicedrate] | 54.5 ± 5 µM | 114 ± 7 µM | 6% | 23.5 ± 3.6 mm | 336 ± 15 µM | 0% | – | – | – | – | – |
| COC(=O)[C@@]1(C)CCC[C@]2(C)C(CC[C@@H](C)CC(=O)OC3=C(CC=C(C)C)C(=O)c4ccccc4C3=O)[C@@H](C)CCC21 (stereo partly drawn) [Compound 12, Lapachoyl 17β-dihydrojunicedrate methyl ester] | 290 ± 9 µM | 323 ± 16 µM | – | 27.4 ± 6.8 mm | 926 ± 35 µM | 0% | – | – | – | – | – |
| COc1cc([C@@H]2c3cc4c(cc3[C@@H](O[C@@H]3O[C@@H]5CO[C@@H](C)O[C@H]5[C@H](O)[C@H]3O)[C@H]3COC(=O)[C@H]23)OCO4)cc(OC)c1O [Etoposide, reference compound] | – | 0.58 ± 0.02 µM | – | – | – | – | – | – | – | – | – |
| C=C1CCC2[C@](C)(CCC[C@]2(C)C(=O)O)[C@H]1CC[C@@H](C)CC(=O)O (stereo partly shown) [Junicedric acid (I), junicedric acid, reference compound] | > 1000 µM | 304 ± 18 µM | – | – | 181 ± 9 µM | – | – | – | – | – | – |
| Cc1c(OCC(F)(F)F)ccnc1C[S+]([O-])c1nc2ccccc2[nH]1 (stereo not shown) [Lansoprazole, lansoprazole, reference compound] | 221 ± 9 µM | 162 ± 6 µM | – | – | 306 ± 11 µM | – | – | 66.7% | 73% | 9.4 ± 1.2 mm | – |
| CC(C)=CCC1=C(O)C(=O)c2ccccc2C1=O [Lapachol (IV), 2-hydroxy-3-(3-methyl-2-butenyl)-[1,4]-naphthoquinone, reference compound] | 55 ± 3 µM | 382 ± 15 µM | – | – | > 1000 µM | – | – | – | – | – | did not present a statistically significant effect |
| CC1=C(CC[C@@H](C)CC(=O)O)[C@@]2(C)CCC[C@](C)(C(=O)O)C2CC1 (stereo partly shown) [Δ8(9) junicedric acid (II), Δ8(9) Junicedric acid, reference compound] | > 1000 µM | 343 ± 22 µM | 79% | 5.3 ± 2.4 mm | 214 ± 32 µM | 44.4% | – | – | – | – | – |
